According to ChEMBL document CHEMBL6120956, “Discovery of a Potent, Orally Active, and Long-Lasting P2X7 Receptor Antagonist as a Preclinical Candidate for Delaying the Progression of Chronic Kidney Disease” (J Med Chem, 2024):

Experiments:
[1] = Metabolic stability in human liver microsomes assessed as clearance; type: ADME, Microsome; settings: read-out: CLH
CYP2C19 = CYP2C19 (Homo sapiens, UniProt P33261); assay: Inhibition of CYP2C19 in human liver microsomes assessed as compound remaining at 1 uM measured after 2 hrs incubation by LC-MS/MS analysis; type: ADME, Microsome; settings: read-out: Activity
Chain of CYP2C19 (P33261 whole entry): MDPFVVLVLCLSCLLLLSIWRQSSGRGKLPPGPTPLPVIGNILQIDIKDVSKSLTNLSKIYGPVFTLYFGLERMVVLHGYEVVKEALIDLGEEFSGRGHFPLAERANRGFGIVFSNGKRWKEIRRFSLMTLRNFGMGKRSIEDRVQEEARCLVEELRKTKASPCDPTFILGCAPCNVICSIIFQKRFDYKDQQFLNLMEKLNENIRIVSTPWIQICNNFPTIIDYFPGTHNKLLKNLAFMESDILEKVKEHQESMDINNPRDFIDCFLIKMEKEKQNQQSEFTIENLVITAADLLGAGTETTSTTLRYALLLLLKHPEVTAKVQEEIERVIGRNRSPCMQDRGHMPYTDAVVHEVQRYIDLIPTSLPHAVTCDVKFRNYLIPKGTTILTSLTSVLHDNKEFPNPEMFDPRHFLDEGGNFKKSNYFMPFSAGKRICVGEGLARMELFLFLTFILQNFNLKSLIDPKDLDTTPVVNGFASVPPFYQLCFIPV

CYP2C9 = CYP2C9 (Homo sapiens, UniProt P11712); assay: Inhibition of CYP2C9 in human liver microsomes assessed as compound remaining at 1 uM measured after 2 hrs incubation by LC-MS/MS analysis; type: ADME, Microsome; settings: read-out: Activity
Chain of CYP2C9 (P11712 whole entry): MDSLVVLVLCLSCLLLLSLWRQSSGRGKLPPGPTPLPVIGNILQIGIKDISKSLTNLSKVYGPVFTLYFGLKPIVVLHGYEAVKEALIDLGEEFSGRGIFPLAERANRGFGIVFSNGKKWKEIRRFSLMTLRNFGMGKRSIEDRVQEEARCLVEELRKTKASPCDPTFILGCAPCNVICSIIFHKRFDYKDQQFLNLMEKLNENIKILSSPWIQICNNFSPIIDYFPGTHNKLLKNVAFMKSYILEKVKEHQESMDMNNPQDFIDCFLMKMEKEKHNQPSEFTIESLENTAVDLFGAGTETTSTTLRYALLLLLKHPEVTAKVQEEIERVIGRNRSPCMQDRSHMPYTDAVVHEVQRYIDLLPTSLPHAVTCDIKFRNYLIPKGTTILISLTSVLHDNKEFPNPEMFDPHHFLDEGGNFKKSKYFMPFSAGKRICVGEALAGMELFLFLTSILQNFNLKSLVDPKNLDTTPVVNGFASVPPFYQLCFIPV

[2] = Toxicity in female C57BL/6 mouse assessed as decrease in body weight at 2 g/Kg measured for 2 to 6 days; settings: in vivo, 2000 mg/kg, time 2-6 day
CYP2D6 = CYP2D6 (Homo sapiens, UniProt P10635); assay: Inhibition of CYP2D6 in human liver microsomes assessed as compound remaining at 1 uM measured after 2 hrs incubation by LC-MS/MS analysis; type: ADME, Microsome; settings: read-out: Activity
Chain of CYP2D6 (P10635 whole entry): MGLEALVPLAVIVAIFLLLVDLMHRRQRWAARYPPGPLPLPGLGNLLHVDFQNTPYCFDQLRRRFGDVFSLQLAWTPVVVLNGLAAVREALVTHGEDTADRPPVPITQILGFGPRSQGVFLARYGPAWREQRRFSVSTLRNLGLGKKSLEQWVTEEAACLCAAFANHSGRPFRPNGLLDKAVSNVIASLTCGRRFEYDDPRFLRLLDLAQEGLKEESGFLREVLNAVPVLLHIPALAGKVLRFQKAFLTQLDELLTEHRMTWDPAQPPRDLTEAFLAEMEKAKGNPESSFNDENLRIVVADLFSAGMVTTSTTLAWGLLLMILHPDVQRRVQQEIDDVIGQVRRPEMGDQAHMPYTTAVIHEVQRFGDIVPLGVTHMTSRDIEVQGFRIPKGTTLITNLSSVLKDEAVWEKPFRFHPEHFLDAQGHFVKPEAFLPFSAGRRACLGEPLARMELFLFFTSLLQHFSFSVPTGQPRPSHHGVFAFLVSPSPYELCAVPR

P2X purinoceptor 7 = biological target: T1, P2X purinoceptor 7 (Mus musculus, UniProt Q9Z1M0); assay: Antagonist activity against mouse P2X7 receptor expressed in ATP-stimulated HEK293 cells assessed as influx of PI by fluorescence dye uptake assay relative to control; type: cell-based
T1 sequence (Q9Z1M0 whole entry): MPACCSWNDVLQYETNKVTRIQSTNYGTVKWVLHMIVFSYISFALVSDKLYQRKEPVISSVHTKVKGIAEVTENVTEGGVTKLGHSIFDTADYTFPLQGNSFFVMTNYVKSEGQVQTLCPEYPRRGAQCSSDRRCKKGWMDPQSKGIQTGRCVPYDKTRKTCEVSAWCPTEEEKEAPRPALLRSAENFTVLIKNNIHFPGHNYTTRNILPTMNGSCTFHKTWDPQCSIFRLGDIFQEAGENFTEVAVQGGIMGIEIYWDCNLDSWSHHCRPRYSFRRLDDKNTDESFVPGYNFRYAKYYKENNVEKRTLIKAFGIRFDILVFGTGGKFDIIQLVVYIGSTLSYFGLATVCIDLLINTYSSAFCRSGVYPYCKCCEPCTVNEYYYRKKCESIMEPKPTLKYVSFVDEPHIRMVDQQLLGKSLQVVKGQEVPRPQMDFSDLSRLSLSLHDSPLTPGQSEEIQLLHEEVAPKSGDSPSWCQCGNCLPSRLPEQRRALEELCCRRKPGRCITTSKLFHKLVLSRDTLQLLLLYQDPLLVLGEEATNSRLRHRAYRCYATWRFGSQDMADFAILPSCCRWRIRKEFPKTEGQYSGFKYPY

CYP3A4 = CYP3A4 (Homo sapiens, UniProt P08684); assay: Inhibition of CYP3A4 in human liver microsomes assessed as compound remaining at 1 uM measured after 2 hrs incubation by LC-MS/MS analysis; type: ADME, Microsome; settings: read-out: Activity
Chain of CYP3A4 (P08684 whole entry): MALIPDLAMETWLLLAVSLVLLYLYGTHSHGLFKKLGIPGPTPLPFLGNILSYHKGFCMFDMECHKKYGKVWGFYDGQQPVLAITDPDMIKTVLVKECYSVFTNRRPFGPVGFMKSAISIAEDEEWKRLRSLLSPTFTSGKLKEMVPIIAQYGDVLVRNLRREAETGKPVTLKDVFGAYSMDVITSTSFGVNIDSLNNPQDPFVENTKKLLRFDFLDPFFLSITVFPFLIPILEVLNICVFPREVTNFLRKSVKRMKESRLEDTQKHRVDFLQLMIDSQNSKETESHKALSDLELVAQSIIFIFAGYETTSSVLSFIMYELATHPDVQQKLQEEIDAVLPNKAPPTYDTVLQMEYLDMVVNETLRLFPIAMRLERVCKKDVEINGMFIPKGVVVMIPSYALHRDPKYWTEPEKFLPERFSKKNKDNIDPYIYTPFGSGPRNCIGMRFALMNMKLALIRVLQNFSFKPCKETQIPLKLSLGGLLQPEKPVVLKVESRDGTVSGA

[3] = Metabolic stability in mouse liver microsomes assessed as clearance; type: ADME, Microsome; settings: read-out: CLH
[4] = Half life in male BALB/c mouse at 10 mg/kg, po single administration measured upto 72 hrs by LC-MS/MS analysis; type: ADME, organism-based; settings: in vivo
[5] = Metabolic stability in human liver microsomes assessed as half life; type: ADME, Microsome
CYP2E1 = CYP2E1 (Homo sapiens, UniProt P05181); assay: Inhibition of CYP2E1 in human liver microsomes assessed as compound remaining at 1 uM measured after 2 hrs incubation by LC-MS/MS analysis; type: ADME, Microsome; settings: read-out: Activity
Chain of CYP2E1 (P05181 whole entry): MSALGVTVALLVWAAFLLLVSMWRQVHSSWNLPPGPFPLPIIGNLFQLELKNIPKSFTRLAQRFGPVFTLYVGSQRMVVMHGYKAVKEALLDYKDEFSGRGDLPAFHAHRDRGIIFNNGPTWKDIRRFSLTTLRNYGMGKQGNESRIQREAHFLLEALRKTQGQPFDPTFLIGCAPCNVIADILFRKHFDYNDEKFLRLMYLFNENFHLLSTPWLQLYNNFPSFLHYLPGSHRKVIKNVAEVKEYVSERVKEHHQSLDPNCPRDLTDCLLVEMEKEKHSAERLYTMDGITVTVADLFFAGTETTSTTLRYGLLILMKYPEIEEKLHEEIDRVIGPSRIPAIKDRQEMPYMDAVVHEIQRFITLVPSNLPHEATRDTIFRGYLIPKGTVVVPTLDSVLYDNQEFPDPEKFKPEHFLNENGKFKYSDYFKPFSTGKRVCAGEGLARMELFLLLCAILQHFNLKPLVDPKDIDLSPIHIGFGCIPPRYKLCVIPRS

[6] = Toxicity in C57BL/6 mouse assessed as change in body weight at 2 g/Kg measured for 14 days; settings: in vivo, 2000 mg/kg, 336 h, time 14 day
CYP1A2 = biological target: T2, CYP1A2 (Homo sapiens, UniProt P05177); assay: Inhibition of CYP1A2 in human liver microsomes assessed as compound remaining at 1 uM measured after 2 hrs incubation by LC-MS/MS analysis; type: ADME, Microsome; settings: read-out: Activity
T2 sequence (P05177 whole entry): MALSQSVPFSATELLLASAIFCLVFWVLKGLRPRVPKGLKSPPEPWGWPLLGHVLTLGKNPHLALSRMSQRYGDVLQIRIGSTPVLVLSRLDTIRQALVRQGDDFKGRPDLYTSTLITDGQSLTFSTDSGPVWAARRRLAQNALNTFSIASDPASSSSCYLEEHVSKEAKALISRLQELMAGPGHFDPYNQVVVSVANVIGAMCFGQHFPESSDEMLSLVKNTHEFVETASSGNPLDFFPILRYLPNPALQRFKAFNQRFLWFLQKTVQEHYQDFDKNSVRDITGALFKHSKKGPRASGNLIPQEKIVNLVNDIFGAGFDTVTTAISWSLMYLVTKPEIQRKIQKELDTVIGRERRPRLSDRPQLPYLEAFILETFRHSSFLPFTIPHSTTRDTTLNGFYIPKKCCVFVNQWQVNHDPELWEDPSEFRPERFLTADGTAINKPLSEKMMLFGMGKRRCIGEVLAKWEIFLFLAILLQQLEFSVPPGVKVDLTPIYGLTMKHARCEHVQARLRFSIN

[7] = Cmax in male BALB/c mouse at 10 mg/kg, po single administration measured upto 72 hrs by LC-MS/MS analysis; type: ADME, organism-based; settings: in vivo
CYP2A6 = biological target: T3, CYP2A6 (Homo sapiens, UniProt P11509); assay: Inhibition of CYP2A6 in human liver microsomes assessed as compound remaining at 1 uM measured after 2 hrs incubation by LC-MS/MS analysis; type: ADME, Microsome; settings: read-out: Activity
T3 sequence (P11509 whole entry): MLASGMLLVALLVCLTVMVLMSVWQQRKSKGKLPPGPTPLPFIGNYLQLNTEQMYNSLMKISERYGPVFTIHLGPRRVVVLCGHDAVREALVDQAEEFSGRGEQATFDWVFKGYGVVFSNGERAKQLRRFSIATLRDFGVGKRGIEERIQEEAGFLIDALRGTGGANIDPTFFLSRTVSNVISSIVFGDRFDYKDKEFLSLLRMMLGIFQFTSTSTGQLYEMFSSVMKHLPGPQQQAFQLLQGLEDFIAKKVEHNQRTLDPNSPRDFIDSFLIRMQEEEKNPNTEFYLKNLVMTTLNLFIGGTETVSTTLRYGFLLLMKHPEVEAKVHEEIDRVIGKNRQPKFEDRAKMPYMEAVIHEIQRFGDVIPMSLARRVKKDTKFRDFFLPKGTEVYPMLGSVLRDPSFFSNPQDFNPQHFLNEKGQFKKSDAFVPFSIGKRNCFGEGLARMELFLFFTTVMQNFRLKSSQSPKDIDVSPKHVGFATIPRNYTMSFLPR

[8] = biological target: Voltage-gated inwardly rectifying potassium channel KCNH2 (Homo sapiens, UniProt Q12809); assay: Inhibition of hERG; type: toxicity
Chain of Voltage-gated inwardly rectifying potassium channel KCNH2 (Q12809 whole entry): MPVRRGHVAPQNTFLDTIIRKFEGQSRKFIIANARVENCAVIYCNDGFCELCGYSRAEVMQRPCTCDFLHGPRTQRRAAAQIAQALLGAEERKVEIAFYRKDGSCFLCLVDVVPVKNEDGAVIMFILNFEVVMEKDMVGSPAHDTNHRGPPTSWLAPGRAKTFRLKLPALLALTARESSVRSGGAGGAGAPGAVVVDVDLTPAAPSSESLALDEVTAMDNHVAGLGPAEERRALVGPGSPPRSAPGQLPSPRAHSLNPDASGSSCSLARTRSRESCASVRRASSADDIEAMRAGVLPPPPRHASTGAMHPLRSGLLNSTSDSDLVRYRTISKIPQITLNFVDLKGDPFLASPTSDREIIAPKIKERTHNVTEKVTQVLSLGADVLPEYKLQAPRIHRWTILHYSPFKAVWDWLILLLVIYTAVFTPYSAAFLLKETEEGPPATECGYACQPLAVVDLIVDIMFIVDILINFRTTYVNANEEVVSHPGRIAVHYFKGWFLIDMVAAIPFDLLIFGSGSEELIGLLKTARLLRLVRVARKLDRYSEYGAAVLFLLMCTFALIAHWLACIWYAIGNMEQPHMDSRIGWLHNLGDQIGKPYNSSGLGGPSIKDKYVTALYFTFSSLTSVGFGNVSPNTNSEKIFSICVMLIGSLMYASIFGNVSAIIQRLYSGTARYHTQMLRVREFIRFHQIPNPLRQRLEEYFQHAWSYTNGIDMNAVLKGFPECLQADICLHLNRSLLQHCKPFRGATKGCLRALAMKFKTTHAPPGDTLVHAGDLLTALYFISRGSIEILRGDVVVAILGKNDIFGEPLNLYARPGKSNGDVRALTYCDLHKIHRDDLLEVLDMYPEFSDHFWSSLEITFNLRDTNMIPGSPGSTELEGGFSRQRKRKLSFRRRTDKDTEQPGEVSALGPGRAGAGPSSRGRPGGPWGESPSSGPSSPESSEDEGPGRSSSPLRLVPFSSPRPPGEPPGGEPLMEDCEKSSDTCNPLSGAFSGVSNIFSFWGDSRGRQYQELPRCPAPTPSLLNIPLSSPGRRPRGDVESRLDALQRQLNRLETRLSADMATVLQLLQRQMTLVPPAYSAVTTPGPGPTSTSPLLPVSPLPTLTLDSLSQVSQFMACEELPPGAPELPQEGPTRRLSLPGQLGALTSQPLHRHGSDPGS

[9] = Stability in Balb/c mouse plasma measured upto 8 hrs; type: ADME, cell-free
[10] = AUC (0 to t) in male BALB/c mouse at 10 mg/kg, po single administration measured upto 72 hrs by LC-MS/MS analysis; type: ADME, organism-based; settings: in vivo
[11] = Tmax in male BALB/c mouse at 10 mg/kg, po single administration measured upto 72 hrs by LC-MS/MS analysis; type: ADME, organism-based; settings: in vivo
[12] = Plasma protein binding in plasma (unknown origin) at 10 uM measured after 6 hrs incubation by LC-MS/MS analysis; type: ADME, cell-free; settings: read-out: PPB (converted)
[13] = Metabolic stability in mouse liver microsomes assessed as half life; type: ADME, Microsome
HEK293 [14] = assay: Cytotoxicity against HEK293 cells expressing mouse P2X7 receptor assessed as cell viability upto 2 uM measured after 24 hrs incubation by CCK8 assay; type: toxicity, cell-based; settings: human, hek293, 24 h
[15] = Clearance in male BALB/c mouse at 10 mg/kg, po single administration measured upto 72 hrs by LC-MS/MS analysis; type: ADME, organism-based; settings: in vivo
HEK293 [16] = assay: Cytotoxicity against HEK293 cells expressing human P2X7 receptor assessed as cell viability upto 2 uM measured after 24 hrs incubation by CCK8 assay; type: toxicity, cell-based; settings: hek293, 24 h

SMILES: C[C@H](NC(=O)c1cnc(-c2ccc(S(C)(=O)=O)cc2)s1)c1cn(-c2cc(C(F)(F)F)ccn2)nn1
- CLint scaled [1]: < 12 mL/min/kg
- remaining at 2 h, 1 µM (CYP2C19): 100%
- remaining at 2 h, 1 µM (CYP2C9): 100%
- Activity [2]: Non-toxic
- remaining at 2 h, 1 µM (CYP2D6): 100%
- IC50 (P2X purinoceptor 7): 25.3 nM
- remaining at 2 h, 1 µM (CYP3A4): 100%
- CLint scaled [3]: < 12 mL/min/kg
- half-life [4]: 162 h
- half-life [5]: > 2 h
- remaining at 2 h, 1 µM (CYP2E1): 100%
- Activity [6]: Non-toxic
- remaining at 2 h, 1 µM (CYP1A2): 100%
- Cmax [7]: 19800 ng/mL
- remaining at 2 h, 1 µM (CYP2A6): 100%
- IC50 [8]: > 30000 nM
- Stability [9]: Stable
- AUC(0-t) at 72 h [10]: 1160 µg·h/mL
- Tmax [11]: 24 h
- fraction unbound at 6 h, 10 µM [12]: 0.003
- half-life [13]: > 2 h

SMILES: C[C@@H](NC(=O)c1csc(-c2ccc(S(C)(=O)=O)cc2)n1)c1cn(-c2cc(C(F)(F)F)ccn2)nn1
- CLint scaled [1]: < 12 mL/min/kg
- Activity (HEK293 [14]): Non-toxic
- IC50 (P2X purinoceptor 7): 168 nM
- CLint scaled [3]: < 12 mL/min/kg
- half-life [4]: 6.6 h
- half-life [5]: > 2 h
- Cmax [7]: 6610 ng/mL
- CL/F [15]: 1.67 mL/min/kg
- Activity (HEK293 [16]): Non-toxic
- AUC(0-t) at 72 h [10]: 103 µg·h/mL
- Tmax [11]: 3 h
- half-life [13]: > 2 h

SMILES: C[C@@H](NC(=O)c1cnc(-c2ccc(S(C)(=O)=O)cc2)s1)c1cn(-c2cc(C(F)(F)F)ccn2)nn1
- CLint scaled [1]: < 12 mL/min/kg
- remaining at 2 h, 1 µM (CYP2C19): 84.2%
- remaining at 2 h, 1 µM (CYP2C9): 84.2%
- remaining at 2 h, 1 µM (CYP2D6): 84.2%
- IC50 (P2X purinoceptor 7): 54.7 nM
- remaining at 2 h, 1 µM (CYP3A4): 84.2%
- CLint scaled [3]: < 12 mL/min/kg
- half-life [4]: 4.71 h
- half-life [5]: > 2 h
- remaining at 2 h, 1 µM (CYP2E1): 84.2%
- remaining at 2 h, 1 µM (CYP1A2): 84.2%
- Cmax [7]: 6900 ng/mL
- CL/F [15]: 2.17 mL/min/kg
- remaining at 2 h, 1 µM (CYP2A6): 84.2%
- Stability [9]: Stable
- AUC(0-t) at 72 h [10]: 86.5 µg·h/mL
- Tmax [11]: 2.33 h
- fraction unbound at 6 h, 10 µM [12]: 0.0213
- half-life [13]: > 2 h
